{"source": "PubChem BioAssay (NCI)", "test_in_all_cases": "NCI tumour cell line growth inhibition, 48 h", "key": {"NCI/ADR-RES ovarian": {"system": "NCI/ADR-RES ovarian"}, "RPMI-8226 leukemia": {"system": "RPMI-8226 leukemia"}, "NCI-H460 lung": {"system": "NCI-H460 lung"}, "DU-145 prostate": {"system": "DU-145 prostate"}, "SF-539 CNS": {"system": "SF-539 CNS"}, "OVCAR-4 ovarian": {"system": "OVCAR-4 ovarian"}, "TK-10 renal": {"system": "TK-10 renal"}, "EKVX NSCLC": {"system": "EKVX NSCLC"}, "HL-60(TB) leukemia": {"system": "HL-60(TB) leukemia"}, "NCI-H226 lung": {"system": "NCI-H226 lung"}, "A549 NSCLC": {"system": "A549 NSCLC"}, "HOP-62 NSCLC": {"system": "HOP-62 NSCLC"}, "MOLT-4 leukemia": {"system": "MOLT-4 leukemia"}, "HT29 colon": {"system": "HT29 colon"}, "MCF7 breast": {"system": "MCF7 breast"}, "NCI-H522 lung": {"system": "NCI-H522 lung"}, "ACHN renal": {"system": "ACHN renal"}, "HS 578T breast": {"system": "HS 578T breast"}, "SK-MEL-5 melanoma": {"system": "SK-MEL-5 melanoma"}, "A498 renal": {"system": "A498 renal"}, "OVCAR-3 ovarian": {"system": "OVCAR-3 ovarian"}, "HOP-92 NSCLC": {"system": "HOP-92 NSCLC"}, "CAKI-1 renal": {"system": "CAKI-1 renal"}, "U251 CNS": {"system": "U251 CNS"}, "K-562 leukemia": {"system": "K-562 leukemia"}, "HCT-15 colon": {"system": "HCT-15 colon"}, "HCT-116 colon": {"system": "HCT-116 colon"}, "SF-268 CNS": {"system": "SF-268 CNS"}, "OVCAR-8 ovarian": {"system": "OVCAR-8 ovarian"}, "MDA-N": {"system": "MDA-N"}, "SW-620 colon": {"system": "SW-620 colon"}, "UACC-62 melanoma": {"system": "UACC-62 melanoma"}, "SK-MEL-2 melanoma": {"system": "SK-MEL-2 melanoma"}, "MDA-MB-435": {"system": "MDA-MB-435"}, "SF-295 CNS": {"system": "SF-295 CNS"}, "SNB-75 CNS": {"system": "SNB-75 CNS"}, "786-0 renal": {"system": "786-0 renal"}, "NCI-H23 lung": {"system": "NCI-H23 lung"}, "T-47D breast": {"system": "T-47D breast"}, "LOX IMVI melanoma": {"system": "LOX IMVI melanoma"}, "COLO 205 colon": {"system": "COLO 205 colon"}, "IGROV1 ovarian": {"system": "IGROV1 ovarian"}, "SNB-19 CNS": {"system": "SNB-19 CNS"}, "MDA-MB-231 breast": {"system": "MDA-MB-231 breast"}, "SK-OV-3 ovarian": {"system": "SK-OV-3 ovarian"}, "OVCAR-5 ovarian": {"system": "OVCAR-5 ovarian"}, "RXF 393 renal": {"system": "RXF 393 renal"}, "UACC-257 melanoma": {"system": "UACC-257 melanoma"}, "CCRF-CEM leukemia": {"system": "CCRF-CEM leukemia"}, "UO-31 renal": {"system": "UO-31 renal"}, "MALME-3M melanoma": {"system": "MALME-3M melanoma"}, "SK-MEL-28 melanoma": {"system": "SK-MEL-28 melanoma"}, "M14 melanoma": {"system": "M14 melanoma"}, "PC-3 prostate": {"system": "PC-3 prostate"}, "BT-549 breast": {"system": "BT-549 breast"}, "SN12C renal": {"system": "SN12C renal"}, "KM12 colon": {"system": "KM12 colon"}, "SR leukemia": {"system": "SR leukemia"}}, "note": "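Growth conditions: 96-well plates. Treatment: test compound, 48 hours, 5 concentrations. Analysis: linear interpolation between bracketing concentrations; unreached endpoints set to highest concentration. TGI: concentration producing complete growth inhibition.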"}
{"smiles": "C/C(=N\\Nc1ccc2ccccc2n1)c1ccccc1O", "values": [{"measurement": "TGI", "setting": "NCI/ADR-RES ovarian", "result": "> 100", "unit": "µM"}, {"measurement": "TGI", "setting": "RPMI-8226 leukemia", "result": "> 100", "unit": "µM"}, {"measurement": "TGI", "setting": "NCI-H460 lung", "result": "> 100", "unit": "µM"}, {"measurement": "TGI", "setting": "DU-145 prostate", "result": "> 100", "unit": "µM"}, {"measurement": "TGI", "setting": "SF-539 CNS", "result": "> 100", "unit": "µM"}, {"measurement": "TGI", "setting": "OVCAR-4 ovarian", "result": "> 100", "unit": "µM"}, {"measurement": "TGI", "setting": "TK-10 renal", "result": "> 100", "unit": "µM"}, {"measurement": "TGI", "setting": "EKVX NSCLC", "result": "> 100", "unit": "µM"}, {"measurement": "TGI", "setting": "HL-60(TB) leukemia", "result": "> 100", "unit": "µM"}, {"measurement": "TGI", "setting": "NCI-H226 lung", "result": "> 100", "unit": "µM"}, {"measurement": "TGI", "setting": "A549 NSCLC", "result": "> 100", "unit": "µM"}, {"measurement": "TGI", "setting": "HOP-62 NSCLC", "result": "> 47.9", "unit": "µM"}, {"measurement": "TGI", "setting": "MOLT-4 leukemia", "result": "> 58.5", "unit": "µM"}, {"measurement": "TGI", "setting": "HT29 colon", "result": "> 100", "unit": "µM"}, {"measurement": "TGI", "setting": "MCF7 breast", "result": "> 100", "unit": "µM"}, {"measurement": "TGI", "setting": "NCI-H522 lung", "result": "> 100", "unit": "µM"}, {"measurement": "TGI", "setting": "ACHN renal", "result": "> 100", "unit": "µM"}, {"measurement": "TGI", "setting": "HS 578T breast", "result": "> 100", "unit": "µM"}, {"measurement": "TGI", "setting": "SK-MEL-5 melanoma", "result": "> 100", "unit": "µM"}, {"measurement": "TGI", "setting": "A498 renal", "result": "> 100", "unit": "µM"}, {"measurement": "TGI", "setting": "OVCAR-3 ovarian", "result": "> 20", "unit": "µM"}, {"measurement": "TGI", "setting": "HOP-92 NSCLC", "result": "> 100", "unit": "µM"}, {"measurement": "TGI", "setting": "CAKI-1 renal", "result": "> 100", "unit": "µM"}, {"measurement": "TGI", "setting": "U251 CNS", "result": "> 100", "unit": "µM"}, {"measurement": "TGI", "setting": "K-562 leukemia", "result": "> 100", "unit": "µM"}, {"measurement": "TGI", "setting": "HCT-15 colon", "result": "> 100", "unit": "µM"}, {"measurement": "TGI", "setting": "HCT-116 colon", "result": "> 100", "unit": "µM"}, {"measurement": "TGI", "setting": "SF-268 CNS", "result": "> 100", "unit": "µM"}, {"measurement": "TGI", "setting": "OVCAR-8 ovarian", "result": "> 100", "unit": "µM"}, {"measurement": "TGI", "setting": "MDA-N", "result": "> 100", "unit": "µM"}, {"measurement": "TGI", "setting": "SW-620 colon", "result": "> 100", "unit": "µM"}, {"measurement": "TGI", "setting": "UACC-62 melanoma", "result": "> 100", "unit": "µM"}, {"measurement": "TGI", "setting": "SK-MEL-2 melanoma", "result": "> 100", "unit": "µM"}, {"measurement": "TGI", "setting": "MDA-MB-435", "result": "> 100", "unit": "µM"}, {"measurement": "TGI", "setting": "SF-295 CNS", "result": 37.2, "unit": "µM"}, {"measurement": "TGI", "setting": "SNB-75 CNS", "result": 24.7, "unit": "µM"}, {"measurement": "TGI", "setting": "786-0 renal", "result": "> 100", "unit": "µM"}, {"measurement": "TGI", "setting": "NCI-H23 lung", "result": "> 100", "unit": "µM"}, {"measurement": "TGI", "setting": "T-47D breast", "result": "> 100", "unit": "µM"}, {"measurement": "TGI", "setting": "LOX IMVI melanoma", "result": "> 100", "unit": "µM"}, {"measurement": "TGI", "setting": "COLO 205 colon", "result": "> 100", "unit": "µM"}, {"measurement": "TGI", "setting": "IGROV1 ovarian", "result": "> 100", "unit": "µM"}, {"measurement": "TGI", "setting": "SNB-19 CNS", "result": "> 100", "unit": "µM"}, {"measurement": "TGI", "setting": "MDA-MB-231 breast", "result": "> 100", "unit": "µM"}, {"measurement": "TGI", "setting": "SK-OV-3 ovarian", "result": "> 57.6", "unit": "µM"}, {"measurement": "TGI", "setting": "OVCAR-5 ovarian", "result": "> 100", "unit": "µM"}, {"measurement": "TGI", "setting": "RXF 393 renal", "result": "> 100", "unit": "µM"}, {"measurement": "TGI", "setting": "UACC-257 melanoma", "result": "> 100", "unit": "µM"}, {"measurement": "TGI", "setting": "CCRF-CEM leukemia", "result": "> 29.4", "unit": "µM"}, {"measurement": "TGI", "setting": "UO-31 renal", "result": "> 100", "unit": "µM"}, {"measurement": "TGI", "setting": "MALME-3M melanoma", "result": "> 100", "unit": "µM"}, {"measurement": "TGI", "setting": "SK-MEL-28 melanoma", "result": "> 100", "unit": "µM"}, {"measurement": "TGI", "setting": "M14 melanoma", "result": "> 100", "unit": "µM"}, {"measurement": "TGI", "setting": "PC-3 prostate", "result": "> 100", "unit": "µM"}, {"measurement": "TGI", "setting": "BT-549 breast", "result": "> 100", "unit": "µM"}, {"measurement": "TGI", "setting": "SN12C renal", "result": "> 100", "unit": "µM"}, {"measurement": "TGI", "setting": "KM12 colon", "result": "> 100", "unit": "µM"}, {"measurement": "TGI", "setting": "SR leukemia", "result": 8.16, "unit": "µM"}]}
